Results published in patent publication US20240391930A1, “SPIROCYCLIC BICYCLIC MODULATORS OF CHOLESTEROL BIOSYNTHESIS AND THEIR USE FOR PROMOTING REMYELINATION” (GENENTECH, INC., priority 2021, published 2024).
pEC50, pKi: −log10 of the molar value.

Key:
EpiSC-derived OPCs = experiment: In vitro phenotypic screening of OPCs (MBP high-content imaging); type: cell-based; details: Mus musculus, 72 h; percentage of MBP-positive oligodendrocytes, 3 days, 0.5 nM to 1000 nM; read-out: OPC EC50
Procedure: (§1) To assess effects of treatments on OPCs, all treatments were assayed in two or more independent platings of epiblast stem cell-derived OPCs (EpiSC). EpiSC-derived OPCs were obtained using in vitro differentiation protocols and culture conditions described previously (Najm et al, 2011, Nature Methods). OPCs were expanded and frozen down in aliquots. OPCs were thawed into growth conditions for at least one passage before use in further assays.
EpiSC-derived OPCs were grown and expanded in poly-L-ornithine (PO) and laminin-coated flasks in N2B27 media (DMEM/F12 (Gibco), N2-MAX (R&D Systems), B-27 (ThermoFisher), and GlutaMax (Gibco)) supplemented with FGF2 ([…], R&D systems, 233-FB-025) and PDGF-AA ([…], R&D systems, 233-AA-050) before harvesting for experiments. The cells were seeded onto poly-L-ornithine or poly-D-lysine coated CellCarrier Ultra plates (PerkinElmer) coated with laminin (Sigma, L2020) at a density of 150,000/cm^2 in N2B27 media without growth factors. For dose-response testing, a 1000× compound stock in dimethyl sulphoxide (DMSO) was added to assay plates, resulting in 8-point dose curves with final concentrations between 1000 nM and 0.5 nM. Positive controls and DMSO vehicle controls were included in each assay plate. Cells were incubated under standard conditions (37° C., 5% CO2) for 3 days and fixed with 4% paraformaldehyde (PFA) in phosphate buffered saline (PBS) for 20 min. Fixed plates were washed with PBS, permeabilized with 0.1% Triton X-100, and blocked with 10% donkey serum (v/v) in PBS for 40 min. Then, cells were labelled with MBP antibodies (Abcam, ab7349; 1:200) for 2 h at room temperature, washed with PBS, and stained with Alexa Fluor conjugated secondary antibodies (1:500) for 45 min. Nuclei were visualized by DAPI staining (Sigma; 1 μg/ml), followed by further PBS washes.
Cells and cell culture plates were imaged on the Operetta High Content Imaging and Analysis system (PerkinElmer). Analysis (PerkinElmer Harmony and Columbus software) began by identifying intact nuclei stained by DAPI. The peri-nuclear region of each cell was then cross-referenced with the […] (MBP) stain to identify oligodendrocyte nuclei, and from this the percentage of oligodendrocytes was calculated.

[1] = test system: zymostenol accumulation in EpiSC-derived OPCs (EBP); experiment: GC/MS-based sterol profiling (zymostenol accumulation); type: cell-based; details: Mus musculus, 24 hours, 8 doses from 0.15 nM to 333 nM, read-out: Zymostenol GCMS EC50
Procedure: as §1
Sterols were monitored using a modified Folch wash protocol (Hubler et al, 2018, Nature). EpiSC-derived OPCs were plated at 100,000 cells per well in PO- and laminin-coated 96-well plates in N2B27 media without growth factors. After 24 hours, cells were rinsed with saline and plates were frozen. Cholesterol-d7 standard was then added to each well before drying under nitrogen stream and derivatization with 55 μl of bis(trimethylsilyl) trifluoroacetamide. After derivatization, 2 μl were analyzed by gas chromatography/mass spectrometry using an Agilent 5973 Network Mass Selective Detector equipped with a 6890 gas chromatograph system and a HP-5MS capillary column (30 m×0.25 mm×[…]). Samples were analyzed in full scan mode using electron impact ionization; ion fragment peaks were integrated to calculate sterol abundance, and quantitation was relative to cholesterol-d7. The following ion fragments were used to quantitate each metabolite: cholesterol-d7 (465), FF-Mas (482), cholesterol (368), zymostenol (458), zymosterol (456), Desmosterol (456, 343), 7-dehydrocholesterol (456, 325), lanosterol (393), lathosterol (458), 14-dehydrozymostenol (456, 351). […] All standards were obtained from Avanti Polar Lipids unless otherwise indicated. Calibration curves were generated by injecting varying concentrations of sterol standards and maintaining a fixed amount of cholesterol-D7. For normalized zymostenol accumulation results, the total amount of zymostenol measured after drug treatment was divided by the total amount of zymostenol accumulated after 24 hr treatment with 100 nM positive control reference.

[2] = biological target: T1, human emopamil binding protein and human 7-dehydrocholesterol reductase (hEBP-DHCR7) (Homo sapiens, UniProt Q15125); experiment: hEBP-DHCR7 radioligand filtration binding assay; details: membranes of HEK293 co-expressing hEBP and DHCR7; [3H] 2-thia-6-azaspiro[3.4]octane radioligand; 8 doses 0.06 to 5000 nM
T1 construct: expressed in transfected cells; host or cells: HEK 293 cells, transient transfection with 2 DNA constructs
Procedure: Membrane Preparation: human emopamil binding protein and human 7-dehydrocholesterol reductase co-expressing cells were generated by transient transfecting host human embryonic kidney (HEK) 293 cells with 2 DNA constructs containing each protein's coding sequence. Cells were suspension cultured at 37° C. with 5% CO2 in […] 293 Expression Medium (Thermofisher). Whole cell membrane was prepared by harvesting the cell pellet, adding cold membrane buffer (50 mM Tris, pH7.5, lx Roche COMPLETE EDTA-free protease inhibitor cocktail) 10 times volume of the cell pellets weight, lysing cell pellet on ice by using Dounce homogenizer, spinning at 200 g 4° C. for 15 min, collecting supernatant and spinning again at 25000 g 4° C. for 50 min, transferring pellet to Dounce homogenizer, re-suspending pellet by homogenizing in membrane buffer on ice to reach ˜25 mg/mL, then keeping whole cell membrane aliquots at −80° C.
Compounds were prepared in a 96-well U bottom plate using an Echo550 machine and 10 mM compound DMSO stock solution, followed by an 8-dose 5-fold serial dilutions protocol with final testing compound concentration ranging from 0.06 to 5000 nM, with DMSO back fill to 100 nL/well and n=2. […] The UniFilter-96 GF/B plates were pre-treated by adding 50 µl/well of 0.3% (v/v) PEI to UniFilter-96 GF/B plates. The plates were sealed and incubated at 4° C. for 3 hrs. Then, the plates were washed with ice-cold assay buffer 3 times. The radioligand binding assay was prepared by adding assay buffer diluted hEBP-DHCR7 membrane at 66.7 μg/ml×150 l/well into the 96-well compound plate to reach 10 μg membrane per well. Then, the assay buffer diluted [3H]—((S)-6-(2-Methyl-3-(6-(trifluoromethyl)pyridin-3-yl)propyl)-2-thia-6-azaspiro[3.4]octane 2,2-dioxide or (R)-6-(2-Methyl-3-(6-(trifluoromethyl)pyridin-3-yl)propyl)-2-thia-6-azaspiro[3.4]octane 2,2-dioxide) was added at 25 nM×50 l/well. Following this, the plate was centrifuged at 1000 rpm for 30 secs. The plate was then sealed and agitated at 600 rpm at 22° C. for 5 min, and then incubated at 22° C. for 3 hrs. The incubation was stopped by transferring the binding solution to the pre-treated UniFilter-96 GF/B plate, vacuum filtrated, and then washed four times with ice-cold assay buffer. Following this, the plates were dried at 37° C. for 45 min. The plates were then sealed at the bottom. 40 µl/well of scintillation cocktail was added to the plates. A MicroBeta2 microplate counter was then used to read the plate and analyze the data. For reference and test compounds, the results are expressed as % Inhibition, using the normalization equation: N=100−100×(U−C2)/(C1−C2), where U is the unknown value, C1 is the average of high controls, and C2 is the average value of low controls. The IC50 was determined by fitting percentage of inhibition as a function of compound concentrations with Hill equation using XLfit. Results are expressed as hEBP-DHCR7 Ki (uM) in Table 4. Ki was calculated as described above; * indicates isolated isomer or isomers, but that the stereochemistry has not been assigned.

T1 sequence (Q15125 whole entry): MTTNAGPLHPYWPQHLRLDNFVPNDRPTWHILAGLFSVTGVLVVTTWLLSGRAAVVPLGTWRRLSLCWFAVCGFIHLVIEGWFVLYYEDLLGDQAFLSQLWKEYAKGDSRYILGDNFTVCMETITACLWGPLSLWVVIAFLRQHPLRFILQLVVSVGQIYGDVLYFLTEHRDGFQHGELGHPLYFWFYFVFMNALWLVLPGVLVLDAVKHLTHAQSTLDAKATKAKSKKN

pEC50 (EpiSC-derived OPCs)	pEC50 [1]	pKi [2]	Compound
7.62	8.03	7.26	C[C@H](C(F)F)n1nc(C(F)(F)F)cc1[C@H]1[C@@H]2C[C@@H](N3CCC4(CC3)CS(=O)(=O)C4)C[C@@H]21 (racemic) [Compound 70*, 7-((1R,3S,5S,6r)-6-(1-((R)-1,1-difluoropropan-2-yl)-3-(trifluoromethyl)-1H-pyrazol-5-yl)bicyclo[3.1.0]hexan-3-yl)-2-thia-7-azaspiro[3.5]nonane 2,2-dioxide and 7-((1R,3R,5S,6r)-6-(1-((S)-1,1-difluoropropan-2-yl)-3-(trifluoromethyl)-1H-pyrazol-5-yl)bicyclo[3.1.0]hexan-3-yl)-2-thia-7-azaspiro[3.5]nonane 2,2-dioxide]
7.12	7.77	7.75	C[C@H](C(F)F)n1nc(C(F)(F)F)cc1[C@H]1[C@@H]2C[C@H](N3CCC4(CC3)CS(=O)(=O)C4)C[C@@H]21 (racemic) [Compound 71*, 7-((1R,3R,5S,6r)-6-(1-((R)-1,1-difluoropropan-2-yl)-3-(trifluoromethyl)-1H-pyrazol-5-yl)bicyclo[3.1.0]hexan-3-yl)-2-thia-7-azaspiro[3.5]nonane 2,2-dioxide and 7-((1R,3S,5S,6r)-6-(1-((S)-1,1-difluoropropan-2-yl)-3-(trifluoromethyl)-1H-pyrazol-5-yl)bicyclo[3.1.0]hexan-3-yl)-2-thia-7-azaspiro[3.5]nonane 2,2-dioxide]
8.89	8.92	7.88	CC(C)n1nc(-c2cccc(C(F)(F)F)c2)cc1[C@H]1[C@@H]2C[C@H](N3CCC4(C3)CS(=O)(=O)C4)C[C@@H]21 (single isomer, unassigned) [Compound 1]
7.47	8.41	7.79	CC(C)n1nc(-c2cncc(C(F)(F)F)c2)cc1[C@H]1[C@@H]2C[C@@H](N3CCC4(C3)CS(=O)(=O)C4)C[C@@H]21 (single isomer, unassigned) [Compound 3]
7.43	8.05	7.76	CC(C)n1nc(-c2cncc(C(F)(F)F)c2)cc1[C@H]1[C@@H]2C[C@@H](N3CC[C@@]4(CCS(=O)(=O)C4)C3)C[C@@H]21 (single isomer, unassigned) [Compound 7*]
8.60	8.44	7.74	CC(C)n1nc(-c2cncc(C(F)(F)F)c2)cc1[C@H]1[C@@H]2C[C@@H](N3CC[C@]4(CCS(=O)(=O)C4)C3)C[C@@H]21 (single isomer, unassigned) [Compound 8*]
7.89	8.32	7.70	CC(C)n1nc(-c2cncc(C(F)(F)F)c2)cc1[C@H]1[C@@H]2C[C@H](N3CC[C@]4(CCS(=O)(=O)C4)C3)C[C@@H]21 (single isomer, unassigned) [Compound 10*]
7.77	8.19	7.43	CC(C)n1nc(-c2ccc(C(F)(F)F)nc2)cc1[C@H]1[C@@H]2C[C@@H](N3CCC4(C3)CS(=O)(=O)C4)C[C@@H]21 (single isomer, unassigned) [Compound 13]
8.54	8.70	7.89	CC(C)n1nc(-c2ccc(C(F)(F)F)nc2)cc1[C@H]1[C@@H]2C[C@H](N3CCC4(C3)CS(=O)(=O)C4)C[C@@H]21 (single isomer, unassigned) [Compound 14]
7.32	7.96	7.30	CC(C)n1nc(C(F)(F)F)cc1[C@H]1[C@@H]2C[C@@H](N3CCC4(CC3)CS(=O)(=O)C4)C[C@@H]21 (single isomer, unassigned) [Compound 43*]
7.85	8.17	7.57	CC(C)n1nc(C(F)(F)F)cc1[C@H]1[C@@H]2C[C@H](N3CCC4(CC3)CS(=O)(=O)C4)C[C@@H]21 (single isomer, unassigned) [Compound 44*]
8.48	8.52		CC(C)(C)n1nc(C(F)(F)F)cc1[C@H]1[C@@H]2C[C@@H](N3CCC4(CC3)CS(=O)(=O)C4)C[C@@H]21 (single isomer, unassigned) [Compound 55]
7.23	7.35		CC(C)n1nc(C(F)(F)F)cc1[C@H]1[C@@H]2C[C@@H](N3CCC[C@@]4(CCS(=O)(=O)C4)C3)C[C@@H]21 (single isomer, unassigned) [Compound 92*]
7.72	8.24		CC(C)(C)n1nc(C(F)(F)F)cc1[C@H]1[C@@H]2C[C@H](N3CCC4(CC3)CS(=O)(=O)C4)C[C@@H]21 [Compound 56, 7-((1R,3r,5S,6r)-6-(1-(tert-butyl)-3-(trifluoromethyl)-1H-pyrazol-5-yl)bicyclo[3.1.0]hexan-3-yl)-2-thia-7-azaspiro[3.5]nonane 2,2-dioxide]
7.89	8.41		CC(C)n1nc(-c2cccc(C(F)(F)F)c2)nc1[C@H]1[C@@H]2C[C@H](N3CCC4(CC3)CS(=O)(=O)C4)C[C@@H]21 [Compound 74, 7-((1R,3r,5S,6r)-6-(1-isopropyl-3-(3-(trifluoromethyl)phenyl)-1H-1,2,4-triazol-5-yl)bicyclo[3.1.0]hexan-3-yl)-2-thia-7-azaspiro[3.5]nonane 2,2-dioxide]
